Data as given in US8153679B2, “Radiolabelled inhibitors of the glycine 1 transporter” (Hoffmann-La Roche Inc., priority 2008, dated 2012).

Assays:
GlyT1 transporter [1] = target: T1, GlyT1 transporter (Mus musculus, UniProt P28571); assay: GlyT1 transporter inhibition in vitro (test method of WO2006/082001); type: cell-based; settings: unlabelled compounds
T1 sequence (P28571 1-651 isoform P28571-2): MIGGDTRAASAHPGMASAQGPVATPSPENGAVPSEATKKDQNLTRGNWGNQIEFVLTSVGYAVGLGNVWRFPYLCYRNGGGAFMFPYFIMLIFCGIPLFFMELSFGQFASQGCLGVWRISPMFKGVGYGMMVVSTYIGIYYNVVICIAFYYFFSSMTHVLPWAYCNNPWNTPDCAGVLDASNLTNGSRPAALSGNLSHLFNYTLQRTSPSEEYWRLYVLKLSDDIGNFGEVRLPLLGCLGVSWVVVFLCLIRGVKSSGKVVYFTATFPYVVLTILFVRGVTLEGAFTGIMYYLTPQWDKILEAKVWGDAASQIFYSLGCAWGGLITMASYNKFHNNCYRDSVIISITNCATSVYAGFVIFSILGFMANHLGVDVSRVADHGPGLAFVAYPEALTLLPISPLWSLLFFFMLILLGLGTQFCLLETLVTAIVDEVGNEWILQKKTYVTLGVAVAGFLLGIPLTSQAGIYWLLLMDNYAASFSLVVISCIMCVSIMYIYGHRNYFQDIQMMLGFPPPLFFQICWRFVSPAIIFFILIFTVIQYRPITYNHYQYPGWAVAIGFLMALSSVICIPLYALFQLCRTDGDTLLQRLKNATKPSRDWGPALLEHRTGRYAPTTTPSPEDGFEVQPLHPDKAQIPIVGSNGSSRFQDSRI
Excerpt: The test method is described in WO2006/082001.

[2] = system: glycine transporter 1 (GlyT1); assay: In vivo PET imaging in the baboon; parameters: species or system baboon (papio anubis); settings: intravenous 1 minute bolus, PET 0 to 90 minutes
Procedure: 1) PET imaging with [^11C-][2-Isopropoxy-5-methanesulfonyl-phenyl)-[5-(tetrahydro-pyran-4-yl)-1,3-dihydro-isoindol-2-yl]-methanone] and [^11C]-5-Methanesulfonyl-2-((S)-2,2,2-trifluoro-1-methyl-ethoxy)-phenyl]-[5-(tetrahydro-pyran-4-yl)-1,3-dihydro-isoindol-2-yl]-methanone
(§1) The experiments described below were carried out in male baboons (papio anubis). Animals were fasted for 12 hours prior to the PET study. Baboons were initially sedated intramuscularly with Ketamine hydrochloride with restraint dosages of 5-7 mg/kg to achieve a light plane of anesthesia and then maintained on continuous Propofol intravenous infusion @ […] (DIPRIVAN® Injectable Emulsion). Circulatory volume was maintained by infusion of isotonic saline. A femoral arterial catheter was inserted for blood sampling. Physiological vital signs including heart rate, ECG, blood pressure (Spacelabs Monitor, Issaquah, Wash., USA) and oxygen saturation (Nellcor OxiMax® N-600™ Pulse Oximeter, Pleasanton, Calif., USA) were continuously monitored throughout the study. The animal was positioned in an ECAT HRRT® brain PET scanner (High Resolution Research Tomograph, CPS Innovations, Inc., Knoxville, Tenn.). The head of the animal was fitted with a thermoplastic mask that was attached to a head holder for reproducible fixation. […]

GlyT1 transporter [3] = target: T2, GlyT1 transporter (Rattus norvegicus, UniProt P28572); assay: Autoradiographic studies in rat brain sections; type: binding; settings: for distribution of the binding sites in rat brain sections: radiotracer 1 nM, 60 min, 37° C., high densities in thalamus, brainstem, pons, medulla oblungata, cerebellum, lower in striatum, cortex, hippocampus
T2 construct: Ten μm-thick sagittal sections were cut in a Cryostat and thaw-mounted on adhesion glass slides; from tissue; host or cells: rat brain, sagittal sections (male Wistar rats)
T2 sequence (P28572 1-638): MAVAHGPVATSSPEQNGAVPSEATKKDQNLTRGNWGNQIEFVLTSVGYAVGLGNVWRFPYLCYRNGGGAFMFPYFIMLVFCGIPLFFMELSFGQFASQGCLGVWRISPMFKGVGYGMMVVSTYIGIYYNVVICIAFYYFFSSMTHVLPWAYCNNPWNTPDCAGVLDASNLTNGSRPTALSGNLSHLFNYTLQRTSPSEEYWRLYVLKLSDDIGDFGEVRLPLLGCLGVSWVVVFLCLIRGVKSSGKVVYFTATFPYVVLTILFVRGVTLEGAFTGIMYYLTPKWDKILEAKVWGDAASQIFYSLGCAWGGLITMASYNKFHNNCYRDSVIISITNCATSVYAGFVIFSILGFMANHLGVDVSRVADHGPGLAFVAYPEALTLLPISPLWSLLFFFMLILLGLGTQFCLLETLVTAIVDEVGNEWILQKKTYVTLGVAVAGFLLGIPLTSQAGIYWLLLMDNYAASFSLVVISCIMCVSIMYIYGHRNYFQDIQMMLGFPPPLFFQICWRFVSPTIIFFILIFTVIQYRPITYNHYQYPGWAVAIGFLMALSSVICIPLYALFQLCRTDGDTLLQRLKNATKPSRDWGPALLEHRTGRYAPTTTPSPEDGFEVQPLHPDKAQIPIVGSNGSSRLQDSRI
Excerpt: Autoradiographic Studies in Rat Brain
The distribution of the binding sites of [^3H][5-Methanesulfonyl-2-((S)-2,2,2-trifluoro-1-methyl-ethoxy)-phenyl]-[5-(tetrahydro-pyran-4-yl)-1,3-dihydro-isoindol-2-yl]-methanone and [^3H][2-Isopropoxy-5-methanesulfonyl-phenyl)-[5-(tetrahydro-pyran-4-yl)-1,3-dihydro-isoindol-2-yl]-methanone] was investigated in the rat brain.
Male Wistar rats were used for these experiments. Rats were sacrificed; their brains were rapidly removed, frozen in dry ice powder. Ten μm-thick sagittal sections were cut in a Cryostat and thaw-mounted on adhesion glass slides. Brain sections were first incubated for 10 min. in Ringer buffer (NaCl 120 mM, KCl 5 mM, CaCl2 2 mM, MgCl2 1 mM, Tris-HCl 50 mM pH 7.4) at 37° C. and then for 60 min. in Ringer buffer at 37° C. containing either [^3H]5-Methanesulfonyl-2-((S)-2,2,2-trifluoro-1-methyl-ethoxy)-phenyl]-[5-(tetrahydro-pyran-4-yl)-1,3-dihydro-isoindol-2-yl-methanone or [^3H]-[2-Isopropoxy-5-methanesulfonyl-phenyl)-[5-(tetrahydro-pyran-4-yl)-1,3-dihydro-isoindol-2-yl]-methanone] at concentration 1 nM. For the evaluation of the non-specific-binding (NSB) of the radiotracer an additional group of sections was incubated with Ringer buffer containing the radiotracer and the reference GlyT1 inhibitor Org 24598 at the concentration 10 μM (60 in at 37° C.). At the end of the incubation, sections were rinsed 2×5 min. and 1×15 min. in ice-cold (4° C.) Ringer buffer and then rapidly dipped three times in distilled water at 4° C. Slide-mounted brain sections were dried under a flow of cold air and exposed together with [^3H]-microscale to a Fuji Imaging plate for 5 days. […] The total amount of radiotracer bound to the brain areas of interest (TB) were measured using the MCID image analysis program and expressed as fmol of bound radiotracer/mg of protein. The amount of [^3H]5-Methanesulfonyl-2-((S)-2,2,2-trifluoro-1-methyl-ethoxy)-phenyl]-[5-(tetrahydro-pyran-4-yl)-1,3-dihydro-isoindol-2-yl]-methanone specifically bound to the GlyT1 carrier (SB) was calculated according to the formula: SB=TB−NSB.

GlyT1 transporter [4] = assay: PET imaging with pharmacological challenges (blocking of radiotracer uptake); type: in vivo, baboon (papio anubis); settings: intravenous infusion 0.2 mg/kg, after 10 min 0.5 mg/kg for remainder 100 min; started 20 min before radiotracer
Procedure: as §1, with “fixation. A 6 min transmission scan with a 1 mCi Cs-137 point source was initially done for attenuation correction.” for “fixation.”

[5] = Preliminary pharmacokinetic experiments and modeling (blocker infusion); type: in vivo, baboon; settings: intravenous infusion 0.2 mg/kg then 0.5 mg/kg
Procedure: Each animal received two sequential administrations of the radiotracer on the same day. The first administration of radiotracer was used to determine radiotracer baseline uptake. Following the baseline scan, the baboon received an intravenous administration of unlabeled [5-methanesulfonyl-2-((S)-2,2,2-trifluoro-1-methyl-ethoxy)-phenyl]-[5-(tetrahydro-pyran-4-yl)-1,3-dihydro-isoindol-2-yl]-methanone (blocker). The blocker infusion started 20 min before (the second) radiotracer injection. The blocker was first infused at dose=0.2 mg/kg. After 10 min, the flow rate was changed to deliver 0.5 mg/kg for the remainder 100 min of the study.

## CC(C)Oc1ccc(S(C)(=O)=O)cc1C(=O)N1Cc2ccc(C3CCOCC3)cc2C1 [(2-isopropoxy-5-methanesulfonyl-phenyl)-[5-(tetrahydro-pyran-4-yl)-1,3-dihydro-isoindol-2-yl]-methanone]
GlyT1 transporter [1]
  IC50: 14 nM

## C[C@H](Oc1ccc(S([11CH3])(=O)=O)cc1C(=O)N1Cc2ccc(C3CCOCC3)cc2C1)C(F)(F)F [Example 2, [^11C-methyl]-[5-Methanesulfonyl-2-((S)-2,2,2-trifluoro-1-methyl-ethoxy)-phenyl]-[5-(tetrahydro-pyran-4-yl)-1,3-dihydro-isoindol-2-yl]-methanone]
[2]
  brain uptake of radiotracer: rapidly taken up in multiple brain areas

## CC(C)Oc1ccc(S([11CH3])(=O)=O)cc1C(=O)N1Cc2ccc(C3CCOCC3)cc2C1 [Example 4, [^11C-methyl]-(2-Isopropoxy-5-methanesulfonyl-phenyl)-[5-(tetrahydro-pyran-4-yl)-1,3-dihydro-isoindol-2-yl]-methanone]
[2]
  brain uptake of radiotracer: rapidly taken up in multiple brain areas

## CN(CC[C@@H](Oc1ccc(C(F)(F)F)cc1)c1ccccc1)CC(=O)O [Org 24598]
GlyT1 transporter [3]; high concentrations of inhibitor (Org 24598 10 μM), radiotracers 1 nM
  effect of co-incubation on binding of both [3H] radiotracers to rat brain sections: completely abolished binding

## C[C@H](Oc1ccc(S(C)(=O)=O)cc1C(=O)N1Cc2ccc(C3CCOCC3)cc2C1)C(F)(F)F [[5-methanesulfonyl-2-((S)-2,2,2-trifluoro-1-methyl-ethoxy)-phenyl]-[5-(tetrahydro-pyran-4-yl)-1,3-dihydro-isoindol-2-yl]-methanone]
GlyT1 transporter [1]
  IC50: 28 nM
GlyT1 transporter [4]
  effect of pretreatment with cold blocker on specific uptake of both [11C] radiotracers in brain: completely blocked the specific uptake
[5]
  plasma levels during the PET scan time interval: constant plasma levels

## [3H-methyl]-[5-Methanesulfonyl-2-((S)-2,2,2-trifluoro-1-methyl-ethoxy)-phenyl]-[5-(tetrahydro-pyran-4-yl)-1,3-dihydro-isoindol-2-yl]-methanone [Example 1]
GlyT1 transporter [3]
  distribution of the binding sites in rat brain sections: corresponded to the known distribution of the GlyT1 transporter

## [^3H-methyl]-(2-Isopropoxy-5-methanesulfonyl-phenyl)-[5-(tetrahydro-pyran-4-yl)-1,3-dihydro-isoindol-2-yl]-methanone [Example 3]
GlyT1 transporter [3]
  distribution of the binding sites in rat brain sections: corresponded to the known distribution of the GlyT1 transporter
